Results taken from patent US11213583B2, “Methods and compositions for treating cancer and infectious diseases” (Cedars-Sinai Medical Center, priority 2014, dated 2022).

Experiments:
RENCA tumor cells = settings: Wang et al. Br J Cancer 2011; cited from earlier work
RENCA tumors = test: RENCA tumor treatment model in Balb/c mice; assay type: in vivo; settings: αCD4 days 6 and 10; temsirolimus daily days 14 to 34; no cancer vaccine
Procedure: (§1) (a) RENCA-CA9 tumor cells were implanted into Balb/C mice (n=5 per group) on day 0. CD4 lymphocytes were depleted with αCD4 antibody on days 6 and 10. Mice were treated with daily temsirolimus on days 14 to 34. Tumor growth was monitored. Results are representative of triplicate experiments. (b) In the same experiment, lymphocytes were harvested on day 45, restimulated with CA9 peptide, and stained for CD8 and IFNγ. (c) Following CD4 depletion, spleen, lymph node and blood were collected on days 0, 1, 10. Lymphocytes were stained for CD4, CD8 and FoxP3 and analyzed by flow cytometry. (c-e) The percentages of CD4 cells in the spleen, lymph node and blood on days 0, 1, and 10 following CD4 depletion are reported. (d) Following CD4 depletion, percentages of splenocytes that are CD4 or CD8 positive are reported, and percent of CD4 cells that are FoxP3 positive is reported. (e) In the same experiment, the absolute numbers of splenocytes positive for CD4, CD8, and CD4/FoxP3 are reported. *p<0.05, **p<0.01,***p<0.005.
Furthermore, the presence of tumor itself increased Tregs (FIG. 8). Therefore, we hypothesized that the antitumor immunity induced by mTOR inhibition can be further enhanced by targeting Tregs. Currently there is no clinical strategy to selectively remove Tregs; however, it is feasible to deplete all CD4 lymphocytes. However, CD4 effector cells are required for immune activation. […]

CD8 lymphocytes (IFN-γ) = test: Tumor-specific IFN-γ response of lymphocytes harvested on day 45, RENCA model; assay type: in vivo, mice; settings: lymphocytes harvested day 45, restimulated with CA9 peptide
Procedure: as §1
In the same experiment, lymphocytes were harvested on day 45 and assessed for tumor-specific IFN-γ response (FIG. 2b). In tumor-bearing mice that received no treatment, there was no IFN-γ response. […] To characterize the CD4 lymphocyte depletion in response to αCD4, naïve mice were treated with a single dose of αCD4.

Pmel-1 lymphocytes = test: Flow cytometry of adoptively transferred Thy1.1 Pmel-1 lymphocytes after DC vaccine and temsirolimus; settings: with DC vaccine
[1] = test system: CD4+FoxP3+ lymphocytes / CTL function; test: Treg depletion with diphtheria toxin in DEREG mice, in vivo CTL assay

Row | Compound | growth of RENCA tumor cells in vitro (RENCA tumor cells) | RENCA tumor growth (RENCA tumors) | tumor-specific IFN-γ response (CD8 lymphocytes (IFN-γ)) | Eomes expression in Pmel-1 lymphocytes (Pmel-1 lymphocytes) | Tbet expression in Pmel-1 lymphocytes (Pmel-1 lymphocytes) | Tregs (Pmel-1 lymphocytes) | CD4+FoxP3+ lymphocytes [1]
1 | CO[C@H]1C[C@@H]2CC[C@@H](C)[C@@](O)(O2)C(=O)C(=O)N2CCCC[C@H]2C(=O)O[C@H]([C@H](C)C[C@@H]2CC[C@@H](OC(=O)C(C)(CO)CO)[C@H](OC)C2)CC(=O)[C@H](C)/C=C(\C)[C@@H](O)[C@@H](OC)C(=O)[C@H](C)C[C@H](C)/C=C/C=C/C=C/1C [temsirolimus] | directly inhibit the growth of RENCA tumor cells in vitro | effective in decreasing tumor growth | some IFN-γ response | increased expression of Eomes | decrease in Tbet expression | increase in Tregs | 
2 | diphtheria toxin [DT] |  |  |  |  |  |  | removed nearly all CD4+FoxP3+ lymphocytes
